# Like-named read-outs stand apart in the source and are kept apart here.
# Columns and labels:
# [1] = tested on: S. maltophilia; assay: MIC against S. maltophilia isolates; type: cell-based, Stenotrophomonas maltophilia; conditions: S. maltophilia isolates (n per peptide in table)
# In short: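 Chp peptides were tested on a set of S. maltophilia isolates (n = isolates per species), with minimal inhibitory concentrations given in μg/mL.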
# [2] = tested on: P. aeruginosa strain CFS-1292; assay: MIC in presence and absence of Survanta pulmonary surfactant; type: cell-based, Pseudomonas aeruginosa
# [3] = tested on: P. aeruginosa strain CFS-1292; assay: MIC in presence of mouse, rat, rabbit and human serum ([…] each); type: cell-based, Pseudomonas aeruginosa; conditions: P. aeruginosa CFS-1292
# Protocol: The activity of several Chp peptides against P. aeruginosa strain CFS-1292 in animal serum was evaluated. […] Rat, mouse, and rabbit serum were all obtained from pooled gender samples.
# [4] = tested on: carbapenem-resistant P. aeruginosa clinical isolate CFS-1292; assay: MIC by modified CLSI broth microdilution against P. aeruginosa CFS-1292 (CAA, CAA + human serum); type: cell-based, Pseudomonas aeruginosa
# [5] = tested on: M. kansasii Hauduroy ATCC 12478; assay: 45 hr MIC against M. kansasii (NTM), Mueller Hinton broth; type: cell-based, Mycobacterium kansasii
# [6] = tested on: P. aeruginosa strain CFS-1292; assay: MIC in presence of divalent cations (calcium chloride, magnesium sulfate); type: cell-based, Pseudomonas aeruginosa
# Protocol: Next, Chp peptides were evaluated in the presence of different divalent cations. […]; (2) in the presence of 2 mM calcium chloride alone; (3) in the presence of 1 mM magnesium sulfate alone; and (4) in the presence of both 2 mM calcium chloride and 1 mM magnesium sulfate. […]
# [7] = tested on: P. aeruginosa strain CFS-1292; assay: MIC at pH 6, pH 7 and pH 8; type: cell-based, Pseudomonas aeruginosa
# Protocol: The Chp peptides were further evaluated at varying pH levels. The MIC values were determined at pH 6, pH 7, and pH 8 for 18 different Chp peptides against P. aeruginosa strain CFS-1292. […]
# [8] = tested on: Klebsiella pneumoniae; type: cell-based
# Protocol: (§1) Determination of Minimal Inhibitory Concentrations (MIC).
# (§2) Additional MIC testing was performed for several peptides against the ESKAPE pathogens Escherichia coli, Enterobacter cloacae, Klebsiella pneumoniae, and Acinetobacter baumannii, in CAA supplemented with human serum (Table D).
# [9] = tested on: M. avium; assay: 45 hr MIC against M. avium (NTM); type: cell-based, Mycobacterium avium; conditions: M. avium Chester ATCC 700898
# [10] = tested on: Pseudomonas aeruginosa; assay: microbe, parasite or virus in culture; type: cell-based; conditions: P. aeruginosa isolates (n per peptide in table)
# [11] = tested on: Acinetobacter baumannii; assay: microbe, parasite or virus in culture; type: cell-based
# [12] = tested on: M. scrofulaceum; assay: 45 hr MIC against M. scrofulaceum (NTM); type: cell-based, Mycobacterium scrofulaceum; conditions: M. scrofulaceum Prissick and Masson ATCC 19981
# [13] = tested on: M. fortuitum; assay: 45 hr MIC against M. fortuitum (NTM); type: cell-based, Mycobacterium fortuitum; conditions: M. fortuitum subsp. Fortuitum da Costa Cruz. ATCC 6841
# [14] = tested on: carbapenem-resistant bacterial strains; assay: organism not typed; type: cell-based
# Description: as §1
# [15] = tested on: Enterobacter cloacae; assay: microbe, parasite or virus in culture; type: cell-based
# In short: (§3)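 Read-out is the minimal inhibitory concentration of each peptide, measured in serum-supplemented CAA.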
# [16] = tested on: Escherichia coli; assay: microbe, parasite or virus in culture; type: cell-based
# In short: as §3
# [17] = tested on: P. aeruginosa strain CFS-1292; assay: MIC in presence and absence of NaCl (140 mM); type: cell-based, Pseudomonas aeruginosa
# Protocol: Certain Chp peptides were evaluated over a range of physiological NaCl levels and pH values, and were further evaluated for activity in the presence of various divalent cations.
# [18] = tested on: P. aeruginosa; assay: 24-hour time-kill assay at 0.2x, 1x, 5x MIC in CAA, P. aeruginosa; type: cell-based, Pseudomonas aeruginosa
# Protocol: The time-kill assays were performed in CAA media at 37° C. with aeration. Quantitative plating was performed at time periods of 0 hours, 1 hour, 3 hours, and 24 hours. The following Chp peptides were evaluated: Chp2, Chp4, Chp2-M1, Chp4-M1, Chp6, Chp6-M1, Chp10, Chp10-M1, Ecp3, Ecp3-M1, Unp2, Unp2-M1, and Ecp1-M1.
# [19] = tested on: M. smegmatis; assay: 45 hr MIC against M. smegmatis (NTM), Mueller Hinton broth; type: cell-based, Mycobacterium smegmatis
# [20] = tested on: Mycobacterium tuberculosis strains
# Protocol: MIC values for various Chp peptides were determined using the CLSI method for broth microdilution in 96-well microtiter format.
# Next, MIC values for various Chp peptides were determined using the CLSI method above for broth microdilution in 96-well microtiter format for two different Mycobacterium tuberculosis strains. The MIC was determined as explained above for the NTM strains.
# [21] = Stability assessment in 100% CAA; type: in vitro ADME; design: unit not given beside the values
# Protocol: Stability was assessed after incubation in 100% human serum at 37° C. after 10 minutes, 1 hour, and 2 hours.
# Stability assessment was further conducted in 100% CAA and rabbit serum using the same methodology discussed above.
# [22] = tested on: Pseudomonas aeruginosa, Escherichia coli, Enterobacter cloacae, Klebsiella pneumoniae, and Acinetobacter baumannii; assay: MIC against a range of Gram-negative organisms (statements covering several species); type: cell-based; conditions: Tables 40-44 isolates
# Protocol: as §1, §2
# [23] = tested on: M. intracellulare; assay: 45 hr MIC against M. intracellulare (NTM); type: cell-based, Mycobacterium intracellulare; conditions: M. intracellulare (Cuttino and McCabe) Runyon ATCC 13950
# [24] = K. pneumoniae isolates (n per peptide in table)
# [25] = A. baumannii isolates (n per peptide in table)
# [26] = E. cloacae isolates (n per peptide in table)
# [27] = E. coli isolates (n per peptide in table)
sequence,measurement,setting,value
MKRRKLSKKKSRKIFTRGAVNVKKRNLRARPMRGGFRI [Chp10],MIC50,[1],8 µg/mL
same,MIC100,[1],>8 µg/mL
same,MIC,[2]; CAA media + 0.19 mg/mL Survanta,0.5 µg/mL
same,MIC,[2]; CAA media + […] Survanta,0.5 µg/mL
same,MIC,[2]; CAA media alone,0.5 µg/mL
same,MIC BALB/C Mouse Serum,[3]; BALB/C mouse serum […],32 µg/mL
same,MIC CAA,[3]; CAA,1 µg/mL
same,MIC New Zealand White Rabbit Serum,[3]; New Zealand White rabbit serum […],4 µg/mL
same,MIC Sprague Dawley Rat Serum,[3]; Sprague Dawley rat serum […],4 µg/mL
same,MIC Human Serum,[3]; human serum […],1 µg/mL
same,MIC (μg/mL) against CFS-1292 in 100% CAA (1st run/2nd run),"[4]; 100% CAA, 1st run or single value",0.5 µg/mL
same,MIC (μg/mL) against CFS-1292 in CAA + […] human serum,[4]; CAA + […] human serum,0.5 µg/mL
same,45 hr MIC,[5],4 µg/mL
same,MIC,[6]; CAA media + 1 mM MgSO4,1 µg/mL
same,MIC,[6]; CAA media + 2 mM CaCl2,1 µg/mL
same,MIC,[6]; CAA media + + 1 mM MgSO4,2 µg/mL
same,MIC,[6]; CAA media alone,0.5 µg/mL
same,MIC,[7]; CAA media (pH 7),0.5 µg/mL
same,MIC,[7]; pH 6,2 µg/mL
same,MIC,[7]; pH 7,1 µg/mL
same,MIC,[7]; pH 8,1 µg/mL
same,MIC50,[8]; [24],0.25 µg/mL
same,MIC100,[8]; [24],0.5 µg/mL
same,MIC Range,[8]; [24],0.125 to 0.5 µg/mL
same,MIC,"[8]; Klebsiella pneumoniae HM-44, CAA supplemented with human serum",0.5 µg/mL
same,45 hr MIC,[9],0.5 µg/mL
same,MIC50,[10],4 µg/mL
same,MIC100,[10],8 µg/mL
same,MIC Range,[10],0.5 to 8 µg/mL
same,MIC50,[11]; [25],0.5 µg/mL
same,MIC100,[11]; [25],0.5 µg/mL
same,MIC Range,[11]; [25],0.25 to 0.5 µg/mL
same,MIC,"[11]; Acinetobacter baumannii ATCC BAA 747, CAA supplemented with human serum",2 µg/mL
same,45 hr MIC,[12],0.5 µg/mL
same,45 hr MIC,[13],1 µg/mL
same,MIC,[14]; carbapenem-resistant isolate PA19,0.5 µg/mL
same,MIC,[14]; carbapenem-resistant isolate PA20,8 µg/mL
same,MIC,[14]; carbapenem-resistant isolate PA21,8 µg/mL
same,MIC,[14]; carbapenem-resistant isolate PA22,8 µg/mL
same,MIC,[14]; carbapenem-resistant isolate PA23,4 µg/mL
same,MIC,[14]; carbapenem-resistant isolate PA24,4 µg/mL
same,MIC,[14]; carbapenem-resistant isolate WLC-452,1 µg/mL
same,MIC50,[15]; [26],0.25 µg/mL
same,MIC100,[15]; [26],1 µg/mL
same,MIC Range,[15]; [26],0.125 to 2 µg/mL
same,MIC,"[15]; Enterobacter cloacae ATCC 13047, CAA supplemented with human serum",1 µg/mL
same,MIC50,[16]; [27],0.5 µg/mL
same,MIC100,[16]; [27],1 µg/mL
same,MIC Range,[16]; [27],0.03 to 0.2 µg/mL
same,MIC,"[16]; Escherichia coli ATCC 25922, CAA supplemented with human serum",0.5 µg/mL
same,Fold change in MIC,[17]; CAA + 140 mM NaCl versus CAA without added NaCl,4
same,"MIC, CAA + 140 mM NaCl","[17]; CAA + 140 mM NaCl, P. aeruginosa CFS-1292",2 µg/mL
same,"MIC, CAA (no added NaCl)","[17]; CAA, no added NaCl, P. aeruginosa CFS-1292",0.5 µg/mL
same,Log10 CFU/mL compared to untreated control buffer (24-hour time-kill),[18],all but Chp10 maintaining strong efficacy up to 24 hours
same,45 hr MIC,"[19]; M. smegmatis MC^2 155, Run #1",2 µg/mL
same,45 hr MIC,"[19]; M. smegmatis MC^2 155, Run #2",1 µg/mL
same,MIC,[20]; Mycobacterium tuberculosis (Zopf) Lehmann and Neumann ATCC 25177,32 µg/mL
same,MIC,[20]; Mycobacterium tuberculosis (Zopf) Lehmann and Neumann ATCC 35817,8 µg/mL
same,MIC (100% CAA),[21],0.5
same,"activity (good = MIC100 of ≤4) against all of P. aeruginosa, K. pneumoniae, A. baumannii, E. cloacae, and E. coli",[22],good activity
same,45 hr MIC,[23],0.5 µg/mL

# Source: patent publication US20220401514A1, “ANTIMICROBIAL, BACTERIOPHAGE-DERIVED POLYPEPTIDES AND THEIR USE AGAINST GRAM-NEGATIVE AND ACID-FAST BACTERIA” (CONTRAFECT CORPORATION, priority 2019, published 2022)
